Source: US6911194B2, “Skin preparation” (PhotoCure ASA, priority 2000, dated 2005)

Tests used:
forearm skin of a person = test: Erythema and PpIX fluorescence on forearm skin after topical cream and UVA light (Example 7); format: in vivo, human; details: for content of PpIX produced in the skin areas (fluorescence emission spectra): 20% cream on forearm; for erythema: 20% cream, UVA black light 5 min two hours after application, observed 24 hours later
Procedure: A cream (Unguentum, Merck) containing 20% ALA, ALA butyl ester and ALA hexyl ester respectively, was applied on three separate areas on the skin of the forearm of a person. Two hours later the skin areas were exposed to UVA light from a black light lamp for 5 min.
The content of PpIX produced in the skin areas was assessed by measuring the fluorescence emission spectra.

human skin [1] = test: Erythema on human hands after topical cream and blacklight exposure (Example 2); format: in vivo; details: 20% in Unguentum Merck cream, 5 hours on hands, blacklight 350-400 nm for 5 min or 1 min
Procedure: A high concentration of ALA and ALA-methyl ester (20%, Sigma) in a cream (Unguentum Merck) was applied to a circular area of 1 cm diameter for 5 hours on both hands of a person, FIGS. 1(A, B). A means ALA, M means ALA-methyl ester. The areas of application are shown by the dotted circles on the figure. The cream with the drugs were carefully washed away and the areas were exposed to ordinary blacklight from a fluorescence tube. The wavelengths of the light fall within the region 350-400 nm, FIG. 2. An exposure of 5 minutes was given to the left hand and an exposure of 1 minute was given to the right hand.

human skin [2] = test: Erythema and pigmentation on human forearm after topical cream and black light (Example 4, Experiment B); format: in vivo; details: for erythema: high doses: drug 20%, light 3 min, cream applied 4 hours
Procedure: ALA and ALA derivatives in cream was applied to different areas on the forearm of a person. Four hours afterwards the cream was removed and the arm was exposed to black light, 380 nm, for 1-5 min. The skin of the arm was examined for two weeks.

Balb/c athymic nude mice = test: Tissue distribution of PpIX fluorescence after topical application in mice (Example 5); format: in vivo, mouse; details: 20% cream topical, compared to ALA methyl ester
Procedure: ALA, ALA methyl ester and ALA hexyl ester containing cream was applied locally on the skin surface of hairless mice. Fluorescence intensities were used as indications of the concentration of PpIX on the application site (skin), in remote skin spots, in liver, intestine, lungs, muscle and brain and plasma.
A cream was prepared using 20% (wt/wt) ALA, ALA-Me or ALA-Hex in an ointment (Unguentum, Merck, Darmstadt, Germany). Approximately 0.2 mg of the freshly prepared cream was applied on a single spot of 1 cm diameter on normal skin of each mouse. An adhesive dressing (OpSite Flexigrid, Smith and Nephew Medical, LTD, Hull, England) with a punched hole of 1 cm in diameter was first put on the skin. Then the cream was applied on the skin in the punched hole and covered with another similar dressing. […]
Female Balb/c athymic nude mice were obtained from Bomholt Gaard (Ry, Denmark). At the start of each experiment, they were 7-8 weeks old and weighed 18-25 g. Three mice were housed per cage with autoclaved filter covers in a room with subdued light at constant temperature (24-26° C.) and humidity (30-50%). […]
The method for determining the amounts of PpIX in tissues was described previously (Ma et al., 1998). […] Levels of PpIX in the supernatants were quantitatively determined by recording fluorescence emission spectra of the samples using a Perkin-Elmer (Norwalk, Conn.) LS 50B spectrofluorimeter. […]

[3] = PpIX concentration in plasma after topical application in mice (Example 5); format: in vivo, mouse; details: 20 hr after topical application of 20% cream
Procedure: A cream was prepared using 20% (wt/wt) ALA, ALA-Me or ALA-Hex in an ointment (Unguentum, Merck, Darmstadt, Germany). Approximately 0.2 mg of the freshly prepared cream was applied on a single spot of 1 cm diameter on normal skin of each mouse. An adhesive dressing (OpSite Flexigrid, Smith and Nephew Medical, LTD, Hull, England) with a punched hole of 1 cm in diameter was first put on the skin. Then the cream was applied on the skin in the punched hole and covered with another similar dressing. 20 hours application time was used.
Female Balb/c athymic nude mice were obtained from Bomholt Gaard (Ry, Denmark). At the start of each experiment, they were 7-8 weeks old and weighed 18-25 g. Three mice were housed per cage with autoclaved filter covers in a room with subdued light at constant temperature (24-26° C.) and humidity (30-50%). Food and bedding were sterilized and the mice were given tap water ad libitum in sterilized bottles. For proper application of the cream, anaesthesia, hypnorm dormicum (approximately 4 ml/kg body weight), was i.p. injected into the mice.
Immediately after mice were killed, whole blood was drawn directly from the right atrium of the heart. The total volume of blood obtained from each mouse was approximately 0.2 ml and was selected in EDTA-treated micro-tubes. The red blood cells were fluorimetrically determined as described above.

naked mice = details: topical ALA, simulated solar UV radiation; cited from earlier work
skin of nude BALB/c mice = test: Localization of PpIX fluorescence on skin of nude mice under UV lamp (Example 6)
[4] = tested on: skin of C3H/Tif hairless mice; test: Pigmentation of hairless mouse skin after topical drug and red laser light (Example 4, Experiment A); format: in vivo
Procedure: One hour after the application, the mice were exposed to light for 1 min (red laser light, 100 m/Wcm^2, 633 nm). […] The treatment was repeated 10 times within 2 weeks.

SKH1 hairless mouse = test: Prevention of UV-induced skin cancer by multiple topical ALA-Me PDT sessions (Example 8); format: in vivo
Procedure: The ability of multiple photodynamic therapy (PDT) sessions with topical ALA methylester (ALA-Me) to prevent skin cancer induced by ultraviolet radiation (UV) was studied in the SKH1 hairless mouse. Groups of 20 mice were exposed 5 days per week to UV from FS20 tubes. One group was treated weekly with 8% topical ALA-Me followed 2 hours later by 1.2 J/cm^2 of light from a slide projector, The number, location, and size of skin tumors were registered weekly. Other study groups included: mice treated with 8% ALA-Me and not exposed to light, mice exposed to UV and vehicle, mice exposed to topical ALA-Me and light but not UV, as well as mice exposed to UV with half of their bodies treated with 8% ALA-Me and half of their bodies treated with the vehicle. […] After 26 weeks of UV exposure large tumors (≧4 mm) were present in 14 mice of the UV group as compared to only one mouse in the UV-ALA-Me group.

Structure (SMILES): CCCCOC(=O)CCC(=O)CN [ALA butyl ester]
- content of PpIX produced in the skin areas (fluorescence emission spectra) (forearm skin of a person): smaller
- erythema (forearm skin of a person): significant but weaker erythema

Structure (SMILES): NCC(=O)CCC(=O)O [ALA, 5-aminolevulinic acid]
- erythema spreading out from the area of application (human skin [1]): circular, covering both the upper and the lower part of the hand
- pigmentation (human skin [2]; 20% ALA, 1 min light (slightly erythemogenic), 2 weeks after light exposure): led to later pigmentation
- erythema (human skin [2]): led to erythema
- pigmentation (melanogenesis) (human skin [2]; one week after a low dose single nonerythemogenic treatment): clearly visible pigmentation (melanogenesis)
- PpIX outside the application site (Balb/c athymic nude mice; 5 hrs application time): significally more PpIX outside the application site
- PpIX outside the application site (Balb/c athymic nude mice; 20 hrs application time): significally more PpIX outside the application site
- concentration in plasma [3]: higher than both ALA methylester and ALA hexylester
- content of PpIX produced in the skin areas (fluorescence emission spectra) (forearm skin of a person): highest concentration of PpIX
- erythema (forearm skin of a person): significant pronounced erythema
- UV induction of skin cancer (naked mice): photo-induced carcinogenesis was delayed
- skin reaction of exposed areas (naked mice): erythematous
- localization of protoporphyrin IX (PpIX) fluorescence (skin of nude BALB/c mice; 20% cream, photos under UV lamp after 8 hours): localized all over the skin
- site of PpIX production after application on the skin of mice (summary statement) (skin of nude BALB/c mice; applied on the skin of mice): induces PpIX in the whole mouse

Structure (SMILES): COC(=O)CCC(=O)CN [ALA methyl ester, 5-aminolevulinic acid methyl ester]
- erythema spreading out from the area of application (human skin [1]): only in a half-circle in the upper part of the hand
- skin pigmentation ([4]; 1% cream, 1 min red laser light, repeated 10 times within 2 weeks): gradually pigmented
- erythema ([4]; 1% in Unguentum Merck cream, light 1 min (633 nm) one hour after application): No erythema was observed
- erythema (human skin [2]): led to erythema
- delay in tumor appearance, half body ALA-Me and half body vehicle (SKH1 hairless mouse; UV-exposed mice treated on one side with 8% ALA-Me, other side vehicle): observed only on the side treated with ALA-Me
- number of mice with large tumors (≧4 mm) (SKH1 hairless mouse; after 26 weeks of UV exposure, groups of 20 mice): one
- protoporphyrin IX accumulation in tumors versus adjacent UV exposed skin and normal skin (SKH1 hairless mouse; in vivo fluorescence spectroscopy and fluorescence microscopy at the time of light exposure): preferential accumulation of protoporhyrin IX in tumors
- mortality or morbidity (SKH1 hairless mouse; topical ALA-Me-PDT): without increasing mortality or morbidity
- time when the first tumor appeared (SKH1 hairless mouse; weekly 8% topical ALA-Me plus 1.2 J/cm^2 light, compared to mice only exposed to UV): significant delay

Structure (SMILES): CCCCCCOC(=O)CCC(=O)CN [ALA hexyl ester, 5-aminolevulinic acid hexyl ester]
- content of PpIX produced in the skin areas (fluorescence emission spectra) (forearm skin of a person): smallest
- erythema (forearm skin of a person): significant but weaker erythema
